This is an account of results in patent US20260209247A1, “Substituted Tricyclic Compounds” (Lupin Limited, priority 2019, published 2026).

The IC50 is the concentration needed to halve the response being measured.

Assay [1] deals with T1, protein-protein interaction between hSOS1 and hKRASG12C (Homo sapiens, UniProt Q07889).
T1 construct: GST-hSOS1, 564-1049aa expressed and purified in-house
T1 sequence (Q07889 564-1049): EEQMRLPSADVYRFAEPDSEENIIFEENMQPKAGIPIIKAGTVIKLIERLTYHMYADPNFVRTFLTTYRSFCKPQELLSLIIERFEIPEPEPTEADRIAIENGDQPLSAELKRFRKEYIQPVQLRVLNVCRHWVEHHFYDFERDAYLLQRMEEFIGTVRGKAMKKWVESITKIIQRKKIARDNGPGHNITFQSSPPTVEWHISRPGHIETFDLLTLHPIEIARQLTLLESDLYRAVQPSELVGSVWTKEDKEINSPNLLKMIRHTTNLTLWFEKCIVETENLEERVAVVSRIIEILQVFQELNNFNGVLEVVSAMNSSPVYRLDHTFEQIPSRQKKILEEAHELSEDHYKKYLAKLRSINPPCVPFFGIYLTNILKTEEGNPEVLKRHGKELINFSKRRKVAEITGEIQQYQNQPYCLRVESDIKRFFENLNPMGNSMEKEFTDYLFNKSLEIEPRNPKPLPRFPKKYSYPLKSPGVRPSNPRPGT
The experiment in a line: KRAS-SOS1 interaction assay (HTRF). It counts as binding. The following applies: GST-hSOS1 564-1049aa, HIS-hKRASG12C, read-out: KRAS-SOS1 Interaction inhibition IC50. The essentials:
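GST-hSOS1 (564-1049aa) at 10-50 nM working solution pre-incubated with compounds 10 min at 20° C in HEPES pH 7.4 buffer with EDTA, DTT, BSA and Igepal. HIS-hKRASG12C (100-300 nM working solution) added for 30-60 min, then anti-GST-d2/anti-HIS-Tb detection; percent inhibition from the 665/620 nm ratio.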
In general terms: Time-resolved FRET reads energy transfer from a long-lived donor to a nearby acceptor.

Assay [2] deals with T2, nucleotide exchange on hKRASG12C mediated by hSOS1 (Homo sapiens, UniProt Q07889).
T2 construct: HIS-hSOS1, 564-1049aa mediated GTP loading onto GST-hKRASG12C; His (N); made in house
T2 sequence (Q07889 564-1049): T1 sequence (Q07889 564-1049)
The experiment in a line: Guanine nucleotide exchange assay (GNEA, HTRF). It counts as biochemical. The following applies: HIS-hSOS1 564-1049aa mediated GTP loading onto GST-hKRASG12C 1-169aa, read-out: Guanine nucleotide exchange inhibition IC50. The method in brief:
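Compounds were pre-incubated 10 min at 20 °C with HIS-hSOS1 (564-1049aa) and EDA-GTP-DY-647P1 (working solution 10-50 nM and 200 nM) in pH 7.4 HEPES with NaCl, MgCl2, DTT, BSA and Igepal. GST-hKRASG12C (1-169aa, 25-125 nM working solution) plus anti-GST-Tb was added for 30-60 min at 20 °C. Percent inhibition came from the HTRF 665/620 nm ratio.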

Assay [3] relates to pERK after EGF stimulation in DLD1 cells. The experiment in a line: ERK phosphorylation assay (alphascreen pERK). It counts as cell-based. The conditions noted are these: Homo sapiens, DLD-1, 2 h compound, 200 ng/ml hEGF for 5 minutes, read-out: ERK phosphorylation inhibition IC50. The method in brief: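 DLD1 cells pretreated with test compounds for 2 h, then stimulated with 200 ng/ml hEGF for 5 min. Lysates assayed by AlphaScreen SureFire for ERK1/2 p-T202/Y204, read after 2 h at 25–28 °C. % inhibition relative to the stimulated-minus-unstimulated vehicle window.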

For the compound `COCCN1C(=O)C(C)(C)c2cc3nc(C)nc(N[C@H](C)c4cccc(C(F)(F)C(C)(C)O)c4F)c3cc21` [Compound 63, (R)-4-((1-(3-(1,1-difluoro-2-hydroxy-2-methylpropyl)-2-fluorophenyl)ethyl)amino)-6-(2-methoxyethyl)-2,8,8-trimethyl-6,8-dihydro-7H-pyrrolo[2,3-g]quinazolin-7-one], the values for the half-maximal inhibitory concentration (IC50) in assay [1], in assay [2] and in assay [3] were 1 to 10 nM, 1 to 30 nM and 1 to 200 nM, respectively.
Consider `CCN1C(=O)C(C)(C)c2cc3nc(C)nc(N[C@H](C)c4cccc(C(F)(F)C(C)(C)O)c4F)c3cc21` [Compound 64, (R)-4-((1-(3-(1,1-difluoro-2-hydroxy-2-methylpropyl)-2-fluorophenyl)ethyl)amino)-6-ethyl-2,8,8-trimethyl-6,8-dihydro-7H-pyrrolo[2,3-g]quinazolin-7-one], for which the IC50 in assay [1] is 1 to 10 nM; in assay [2] it was 1 to 30 nM; in assay [3], 1 to 200 nM.
The like results for `Cc1nc(N[C@H](C)c2cccc(C(F)(F)CO)c2F)c2cc3c(cc2n1)N(C)C(=O)C31CC1` [Compound 66, (R)-4′-((1-(3-(1,1-difluoro-2-hydroxyethyl)-2-fluorophenyl)ethyl)amino)-2′,8′-dimethylspiro [cyclopropane-1,6′-pyrrolo[3,2-g]quinazolin]-7′(8′H)-one] were, in that order, 1 to 10 nM, 1 to 30 nM and 1 to 200 nM.
Consider `Cc1nc(N[C@H](C)c2cc(N)cc(C(F)(F)F)c2)c2cc3c(cc2n1)C(C)(C)C(=O)N3C` [Compound 70, (R)-4-((1-(3-amino-5-(trifluoromethyl)phenyl)ethyl)amino)-2,6,8,8-tetramethyl-6H-pyrrolo[2,3-g]quinazolin-7(8H)-one], for which the results for the IC50 in assay [1], in assay [2] and in assay [3] were 1 to 10 nM, 31 to 130 nM and 1 to 200 nM, respectively.
For `Cc1nc(N[C@H](C)c2cccc(C(F)(F)C(C)(C)O)c2F)c2cc3c(cc2n1)C(C)(C)CN3C` [Compound 75, (R)-1,1-difluoro-1-(2-fluoro-3-(1-((2,6,8,8-tetramethyl-7,8-dihydro-6H-pyrrolo[2,3-g]quinazolin-4-yl)amino)ethyl)phenyl)-2-methylpropan-2-ol], the IC50 is 11 to 25 nM in assay [1], 31 to 130 nM in assay [2] and 1 to 200 nM in assay [3].
Regarding `Cc1nc(N[C@H](C)c2cccc(C(F)(F)CO)c2F)c2cc3c(cc2n1)N(C)C(=O)C3(C)C` [Compound 80, (R)-4-((1-(3-(1,1-difluoro-2-hydroxyethyl)-2-fluorophenyl)ethyl)amino)-2,6,6,8-tetramethyl-6,8-dihydro-7H-pyrrolo[3,2-g]quinazolin-7-one], the concentration for half-maximal inhibition (IC50) in assay [1] lay in the range of 1 to 10 nM; in assay [2] it was 1 to 30 nM; in assay [3], 1 to 200 nM.
Turning to `CCc1nc(N[C@H](C)c2cccc(C(F)(F)C(C)(C)O)c2F)c2cc3c(cc2n1)N(C)C(=O)C3(C)C` [Compound 86, (R)-4-((1-(3-(1,1-difluoro-2-hydroxy-2-methylpropyl)-2-fluorophenyl)ethyl)amino)-2-ethyl-6,6,8-trimethyl-6,8-dihydro-7H-pyrrolo[3,2-g]quinazolin-7-one], the IC50 was 1 to 10 nM in assay [1], 31 to 130 nM in assay [2] and 1 to 200 nM in assay [3].
The corresponding values for `CCN1C(=O)C(C)(C)c2cc3c(N[C@H](C)c4cccc(C(F)(F)CO)c4F)nc(C)nc3cc21` [Compound 88, (R)-4-((1-(3-(1,1-difluoro-2-hydroxyethyl)-2-fluorophenyl)ethyl)amino)-8-ethyl-2,6,6-trimethyl-6,8-dihydro-7H-pyrrolo[3,2-g]quinazolin-7-one] are 1 to 10 nM, 1 to 30 nM and 1 to 200 nM.
For `Cc1nc(N[C@H](C)c2cccc(C(F)(F)C(C)(C)O)c2F)c2cc3c(c(C)c2n1)N(C)C(=O)C3(C)C` [Compound 90, (R)-4-((1-(3-(1,1-difluoro-2-hydroxy-2-methylpropyl)-2-fluorophenyl)ethyl)amino)-2,6,6,8,9-pentamethyl-6,8-dihydro-7H-pyrrolo[3,2-g]quinazolin-7-one], the 50% inhibitory concentration (IC50) is 1 to 10 nM in assay [1], 31 to 130 nM in assay [2] and 1 to 200 nM in assay [3].
As to `CCC1(CC)C(=O)N(C)c2cc3nc(C)nc(N[C@H](C)c4cccc(C(F)(F)C(C)(C)O)c4F)c3cc21` [Compound 91, (R)-4-((1-(3-(1,1-difluoro-2-hydroxy-2-methylpropyl)-2-fluorophenyl)ethyl)amino)-6,6-diethyl-2,8-dimethyl-6,8-dihydro-7H-pyrrolo[3,2-g]quinazolin-7-one], the IC50 in assay [1] lay within 11 to 25 nM; in assay [2], 31 to 130 nM; in assay [3] it was 1 to 200 nM.
Regarding `Cc1nc(N[C@H](C)c2cccc(C(F)(F)C(C)(C)O)c2F)c2cc3c(cc2n1)N(C)C(=O)C3(CF)CF` [Compound 92, (R)-4-((1-(3-(1,1-difluoro-2-hydroxy-2-methylpropyl)-2-fluorophenyl)ethyl)amino)-6,6-bis(fluoromethyl)-2,8-dimethyl-6,8-dihydro-7H-pyrrolo[3,2-g]quinazolin-7-one], the values for the IC50 in assay [1], in assay [2] and in assay [3] were 1 to 10 nM, 31 to 130 nM and 201 to 500 nM, respectively.
The like results for `COC1(C)C(=O)N(C)c2cc3c(N[C@H](C)c4cccc(C(F)(F)C(C)(C)O)c4F)nc(C)nc3cc21` (stereo partly drawn) [Compound 101, (R&S)-4-(((R)-1-(3-(1,1-difluoro-2-hydroxy-2-methylpropyl)-2-fluorophenyl)ethyl)amino)-8-methoxy-2,6,8-trimethyl-6,8-dihydro-7H-pyrrolo[2,3-g]quinazolin-7-one] were, in that order, 1 to 10 nM, 1 to 30 nM and 1 to 200 nM.
Turning to `CCn1c(=O)n(C)c2cc3nc(C)nc(N[C@H](C)c4cccc(C(F)(F)C(C)(C)O)c4F)c3cc21` [Compound 104, (R)-8-((1-(3-(1,1-difluoro-2-hydroxy-2-methylpropyl)-2-fluorophenyl)ethyl)amino)-1-ethyl-3,6-dimethyl-1H-imidazo[4,5-g]quinazolin-2(3H)-one], the figures for the concentration for half-maximal inhibition (IC50) in assay [1], in assay [2] and in assay [3] were 1 to 10 nM, 1 to 30 nM and 1 to 200 nM, respectively.
Turning to `Cc1nc(N[C@H](C)c2cccc(C(F)(F)C(C)(C)O)c2F)c2cc3c(cc2n1)n(C)c(=O)n3C(C)C` [Compound 105, (R)-8-((1-(3-(1,1-difluoro-2-hydroxy-2-methylpropyl)-2-fluorophenyl)ethyl)amino)-1-isopropyl-3,6-dimethyl-1H-imidazo[4,5-g]quinazolin-2(3H)-one], the IC50 in assay [1] lay in the range of 1 to 10 nM; in assay [2], 1 to 30 nM; in assay [3], 1 to 200 nM.
Consider `Cc1nc(N[C@H](C)c2cccc(C(F)(F)C(C)(C)O)c2F)c2cc3c(cc2n1)n(C)c(=O)n3CC(F)F` [Compound 106, (R)-8-((1-(3-(1,1-difluoro-2-hydroxy-2-methylpropyl)-2-fluorophenyl)ethyl)amino)-1-(2,2-difluoroethyl)-3,6-dimethyl-1H-imidazo[4,5-g]quinazolin-2(3H)-one], for which the IC50 in assay [1] fell in the range of 1 to 10 nM; in assay [2], 1 to 30 nM; in assay [3] it was 1 to 200 nM.
For the compound `Cc1nc(N[C@H](C)c2cccc(C(F)(F)C(C)(C)O)c2F)c2cc3c(cc2n1)n(C)c(=O)n3C` [Compound 109, (R)-8-((1-(3-(1,1-difluoro-2-hydroxy-2-methylpropyl)-2-fluorophenyl)ethyl)amino)-1,3,6-trimethyl-1,3-dihydro-2H-imidazo[4,5-g]quinazolin-2-one], the IC50 in assay [1] was in the range of 1 to 10 nM; in assay [2] it was 1 to 30 nM; in assay [3], 1 to 200 nM.
Regarding `C[C@@H](Nc1nc(C2CC2)nc2cc3c(cc12)C(C)(C)C(=O)N3C)c1cccc(C(F)(F)C(C)(C)O)c1F` [Compound 110, (R)-2-cyclopropyl-4-((1-(3-(1,1-difluoro-2-hydroxy-2-methylpropyl)-2-fluorophenyl)ethyl)amino)-6,6,8-trimethyl-6,8-dihydro-7H-pyrrolo[3,2-g]quinazolin-7-one], the IC50 is 11 to 25 nM in assay [1], 31 to 130 nM in assay [2] and 201 to 500 nM in assay [3].
